Source: patent US20170266123A1, “COATED PARTICLES FOR DRUG DELIVERY” (Dana-Farber Cancer Institute, Inc., priority 2014, published 2017)

Key:
4T1 cells = assay: Viability of 4T1 cells exposed to Dox or Dox-laden nanoparticles through matrigel; type: cell-based; settings: 500 ng/mL Dox; 3, 6 and 24 hours
Description: Nanoparticles with doxorubicin in the core were formed as described in Example 1, except doxorubicin was added to the organic solvent. The particles were coated as described in Example 10. To test the cell viability for cells exposed to doxorubicin particles, 500 ng/mL of Dox or Dox-laden nanoparticles were added to matrigel on top chamber of a 24 well plates seeded with 4T1 cells. Plates were incubated at 37° C., while gently shaken. The viability was measured at 3 hours, 6 hours, and 24 hours. Cell viability was determined as described in Example 5. For the mammosphere assay, 4T1 cells were seeded at 1000 cells/150 uL/well in 96 well ultra-low adherence plate. The remaining 4T1 cells after treatment were harvested and filtered and the number of mammospheres counted using microscopy.

[1] = PTX content in murine blood and peritoneal cavity after IP dosing; type: in vivo; settings: female, FVB, mouse, mice, IP 5 mg/kg, 3 hours post dosing
Description: Six week-old female FVB mice were obtained from Charles River Laboratory (Boston, USA). Mice were housed in a pathogen-free facility in accordance with the standards of the Dana-Farber Cancer Institute. All animal experiments were approved by the Institute's IACUC. Mice were kept in groups of 4-5 per cage in a 12 hour light/12 hour dark cycle and housed at 25° C. with 50% relative humidity. […] Mice were anaesthetized, and blood samples were collected via retro-orbital bleeding 3 hours post dosing. Blood samples were kept on ice until centrifugation. Samples were centrifuged at 1,400 RCF for 10 min, and plasma was collected. After blood sample collection, mice were sacrificed, and their peritoneal cavities were washed thrice post-mortem with PBS. Plasma and peritoneal washes were flash frozen with liquid nitrogen and lyophilized. The lyophilized powders were rehydrated in 300 μL water and extracted with tert-butyl methyl ether (tBME). The organic solvent was dried under nitrogen.

[2] = tested on: BR5FVB1-Akt (murine ovarian cancer); assay: PTX cytotoxicity, MTT assay, BR5FVB1-Akt; type: cell-based; settings: Mus musculus, 72 hours
Description: (§1) Cells were seeded at a density of 10,000 cells per well in a 96-well and incubated overnight in 200 μL of complete medium. The culture medium was then replaced with 198 μL of fresh medium, two free drug/DMSO solution or NP suspensions in the final concentration ranging from 0.001 to 10,000 nM. After 72 hours of incubation, the medium was replaced with 100 μL of fresh medium containing 13% MTT and incubated for 3.5 hours. Finally, 100 μL of the solubilization/stop solution comprising 20% SDS, 0.02% v/v acetic acid, and 50% v/v DMSO was added to each well, and the absorbance was read at 560 nm by the microplate reader. Cell viability was calculated by dividing the absorbance of treated cells by that of untreated cells after subtracting the absorbance of cell-free medium from each. Here, the untreated cells were those provided with no drug but handled equally otherwise, and the cell-free medium was the medium mixed with MTT solution and stop-solution without cells.
(§2) Cell viability was determined as described in Example 5.

BR5FVB1-Akt cells = assay: Survival study in immunocompetent murine model of ovarian cancer; type: in vivo, mouse; settings: FVB mice, IP 5 mg/kg twice weekly, five doses
Description: The BR5FVB1-Akt mouse ovarian cancer cell line was cultured in DMEM supplemented with 10% FBS and 1% penicillin/streptomycin at 37° C. with 5% CO2. Subconfluent BR5FVB1-Akt cells were trypsinized, washed, and suspended in opti-MEM as a single-cell suspension. Six week-old female FVB mice were injected IP with a total volume of 400 μl opti-MEM containing 3.75×10^6 BR5FVB1-Akt cells.
Mice were sacrificed by CO2 asphyxiation upon ascites development. Their peritoneal cavities were opened postmortem to observe tumor location and extent of metastasis in the peritoneal region. All FVB mice inoculated with BR5FVB1-Akt cells developed tumors. Tumors developed gradually and manifested by formation of ascites in the peritoneal cavity. Tumors were detectable post-mortem as nodules of various sizes and number on the peritoneal wall or adhered to the intestine.
Statistical analysis was performed with GraphPad Prism 5 (La Jolla, Calif., USA). Statistical significance among groups was determined by one-way ANOVA, and pairs were compared by Tukey's multi-comparison test. Survival groups were compared using a Mantel-Cox test.

[3] = tested on: SKOV-3 (human ovarian cancer); assay: PTX cytotoxicity, MTT assay, SKOV3; type: cell-based; settings: SK-OV-3, SKOV3, 72 hours
Description: as §1, §2

[4] = tested on: Calu6 (human lung cancer); assay: PTX cytotoxicity, MTT assay, Calu6; type: cell-based; settings: Calu-6, Calu6, 72 hours
Description: as §1, §2

| concentration at 3 h ([1]; peritoneal lavage (PBS wash of peritoneal cavity)) [ng/mL] | concentration at 3 h ([1]; plasma) [ng/mL] | SMILES | viability of cells (4T1 cells) | IC50 [2] [nM] | tumor onset (BR5FVB1-Akt cells) | IC50 [3] [nM] | IC50 [4] [nM] |
| --- | --- | --- | --- | --- | --- | --- | --- |
|  |  | COc1cccc2c1C(=O)c1c(O)c3c(c(O)c1C2=O)C[C@@](O)(C(=O)CO)C[C@@H]3O[C@H]1C[C@H](N)[C@H](O)[C@H](C)O1 [Dox in solution, doxorubicin] | reduced viability of cells |  |  |  |  |
| 4500 ± 1300 | 9500 ± 1900 | CC(=O)O[C@H]1C(=O)[C@@]2(C)[C@H]([C@H](OC(=O)c3ccccc3)[C@]3(O)C[C@H](OC(=O)[C@H](O)[C@@H](NC(=O)c4ccccc4)c4ccccc4)C(C)=C1C3(C)C)[C@]1(OC(C)=O)CO[C@@H]1C[C@@H]2O [PTX, paclitaxel] |  | ~100 | developed tumors at similar time points | ~10 | ~10 |
